In US20200206354A1, “DRUG DELIVERY COMPOSITION” (PK MED SAS, priority 2017, published 2020):
Several values for one entry are separate records, joined by “and”; a condition that tells them apart may be missing. Equal entries are not always repeated. Structures can show the parent of a compound that is named as a salt.

Assays:
[1] = lysozyme powder from Sigma-Aldrich; cited from earlier work
[2] = Lysozyme activity after extrusion, liquid-liquid extraction and Lysozyme activity Kit; type: biochemical
Description: The lysozyme was extracted from the drug delivery composition by liquid-liquid extraction. 50 mg of drug delivery composition were solubilized in 2.5 mL of Dichloromethane. Then 7.5 mL of cold 66 mM potassium phosphate buffer pH6.24 was added. The mix was vigorously vortex. Samples were maintained in ice between each step. After phase separation, aqueous phase was taken off and lysozyme activity was measured using Lysozyme activity Kit (from Sigma-Aldrich).
The lysozyme was extracted from the drug delivery composition by liquid-liquid extraction as described in Example 4 and lysozyme activity was titrated with lysozyme activity kit (from Sigma-Aldrich).

[3] = Drug integrity after extrusion and release, HPLC peaks compared with non-extruded drug
Description: An Ultimate 3000 HPLC system (Thermofisher Scientific) equipped with Diode Array Detector (DAD-3000(RS)) and a Phenomenex Kinetex EVO C18, LC Column 100×2.1 mm, 2.6 μm with a pore size of 100 Å. The column was controlled to a temperature of 30° C. The mobile phase was a gradient of Ammonium Bicarbonate 20 mM pH9/Acetonitrile (95/5% to 35/65 in 5 min) with a flow rate of 0.75 mL/min. Naltrexone hydrochloride powder was accurately weighed and dissolved in water to give 450 μg/mL solution. Subsequent dilutions were made with water to get concentrations of 7-450 μg/mL. The standard solutions prepared as above were injected in the same conditions of samples. The peak areas of the naltrexone concentration were calculated. The regression of the naltrexone concentration over the peak areas was obtained and used to estimate the amount of naltrexone released from the polymer.

Row | Compound | denaturation temperature [1] | lysozyme activity after two extrusions (in words) ([2]; Example 4 composition (PLA, PCL masterbatch, Savinase®), extrusions at 78° C. and 165° C., results not shown) | lysozyme activity retained after extrusion ([2]; Example 5.2 composition, 50% PCL and 50% lysozyme, extruded at 78° C.) [%] | degradation of the released drug by the PLA-degrading enzyme ([3]; drug delivery composition with Savinase®) | degradation of naltrexone through the extrusion process ([3]; extruded in PLA at 168° C.)
1 | lysozyme: lysozyme powder from Sigma-Aldrich, 14.7 kDa protein used as model drug | 76 °C and 74 °C | still exhibits activity | 95 | – | –
2 | O=C1CC[C@@]2(O)[C@H]3Cc4ccc(O)c5c4[C@@]2(CCN3CC2CC2)[C@H]1O5 [naltrexone, naltrexone hydrochloride] | – | – | – | without any degradation | not degraded
